Data on 13 molecules can be found in ChEMBL document CHEMBL1140674, “Design and synthesis of bioactive adamantane spiro heterocycles” (Bioorg Med Chem Lett, 2007).

For series [1], the system named is Influenza A virus. The experiment in a line: Antiviral activity against influenza A/Hong Kong/7/87 (H3N2) in MDCK cells assessed as inhibition of virus-induced cytopathic effect by MTS assay. The class given is functional, organism-based. A general note: Cytopathic effects are the visible damage that an infection or toxin causes in cultured cells.
A short description of series [2]: Cytotoxicity against MDCK cells assessed as changes in cell morphology. The class given is cell-based, Canis lupus familiaris. Conditions: dog.
Series [3] relates to Trypanosoma brucei. Kind of series: Antiparasitic activity against Trypanosoma brucei 221 blood stream form at pH 7.4. The class given is functional, organism-based.

Bounds are passed on as bounds.

As usually defined, the EC50 is the concentration at which the effect is half-maximal. Consider `NC(=O)c1ncn([C@@H]2O[C@H](CO)[C@@H](O)[C@H]2O)n1` [RIBAVIRIN], for which the half-maximal effective concentration (EC50) in series [1] (mdck) was determined as 8.68 µM. For the same molecule, in series [2], the MCC worked out at 20 µM.
One may read the IC50 as the concentration at which inhibition is half-maximal. In general, IC90 refers to the point of the concentration-response curve where the effect stands at 90%. Lower therefore signals an effect from little substance. On to `CC(N)C12CC3CC(CC(C3)C1)C2` (centres undefined) [RIMANTADINE], for which the EC50 in series [1] (Influenza A virus, H3N2, MDCK) amounted to 0.362 µM. In series [3], this molecule displayed a 50% inhibitory concentration (IC50) of 7.04 µM and a 90% effect concentration (IC90) of 14 µM. Besides, the MCC in series [2] was > 100 µM.
Regarding `C1C2CC3CC1CC(C2)C31CNC1`, the 50% effective concentration (EC50) in series [1] (Influenza A virus, H3N2, MDCK) is 0.33 µM. Also, the MCC in series [2] turned out to be 113 µM.
Turning to `CN1CCC2(CC1)C1CC3CC(C1)CC2C3`, the 50% inhibitory concentration (IC50) in series [3] was > 20 µM.
In the case of `NC12CC3CC(CC(C3)C1)C2` [AMANTADINE], the concentration giving a half-maximal response (EC50) in series [1] (Influenza A virus, H3N2, MDCK) is 1.98 µM. For the same molecule, the IC50 in series [3] was > 130 µM. For the same molecule, the MCC in series [2] is > 100 µM.
The corresponding values for `CN1CCC12C1CC3CC(C1)CC2C3` (centres undefined) are 0.59 µM, > 25 µM and 50 µM.
In the case of `O=C1NC(=O)C2(C(=O)N1)C1CC3CC(C1)CC2C3`, the IC50 in series [3] was determined as 20 µM.
Turning to `CN1CC12C1CC3CC(C1)CC2C3` (centres undefined), the half-maximal effective concentration (EC50) in series [1] (Influenza A virus, H3N2, MDCK) was > 4.5 µM. Further, the MCC in series [2] was 23 µM.
The corresponding values for `C1CC2(N1)C1CC3CC(C1)CC2C3` (centres undefined) are 0.36 µM and 250 µM.
For `C1CC2(CCN1)C1CC3CC(C1)CC2C3.Cl`, in series [1] (Influenza A virus, H3N2, MDCK), the EC50 came to 0.16 µM. Moreover, the MCC in series [2] is 17 µM.
As to `C1CC2(CCN1)C1CC3CC(C1)CC2C3`, in series [3], the IC50 was determined as 5.28 µM and the IC90 was 9.99 µM.
Consider `CN1CCC2(CC1)C1CC3CC(C1)CC2C3.Cl`, for which, in series [1] (Influenza A virus, H3N2, MDCK), the EC50 is 4.3 µM. The MCC in series [2] turned out to be 4 µM.
For `C1C2CC3CC1CC(C2)C31CN1` (centres undefined), the EC50 in series [1] (Influenza A virus, H3N2, MDCK) is > 5 µM. Also, the half-maximal inhibitory concentration (IC50) in series [3] was > 30 µM. The MCC in series [2] came out at 25 µM.
